The values below come from patent USRE34918E, “Azaazulene compounds which are useful as antiallergic and antiinflammatory agents” (Kaken Pharmaceutical Co., Ltd., priority 1988, dated 1995).

Converted amounts (≈) assume the structure as drawn.

A word on the LD50: it is the dose expected to kill half of the subjects tested.

Data set [1] deals with smooth musculus trachealis. Briefly: Relaxant activity of smooth musculus trachealis in guinea pig. On the set-up: species or system guinea pig (male Hartley). Particulars: Cavia porcellus; tracheal chain strips, 37° C.; read-out: Concentration for 50% relaxation. Here is the method: Male Hartley guinea pigs weighing 350 to 550 g were bleed to death, and immediately the tracheae were extirpated. According to the method of Takagi et al [cf. Chem. Pharm. Bull., 8, 716 (1958)], tracheal chain strips was prepared, and the sample was suspended on Magnus apparatus under addition of load of 0.5 g. The test was carried out at 37° C. of liquid temperature. After position of tonus was examined with histamine (10^-6 g/ml) and isoproterenol (10^-7 g/ml), the test compound dissolved in a mixture of dimethyl sulfoxide and physiological saline was added thereto, and the test compound was investigated with respect to the effect on smooth musculus trachealis. Theophylline was used as a positive comparative drug. The relaxation and the contraction of smooth musculus trachealis were recorded on servocorder (SR 6342: commercially available from Watanabe Instruments Corp.) by connecting Isotonic Transducer (TD-1125: commercially available from Nihon Kohden Kogyo Co., Ltd.) to a balancing box.

The nature of the next data set: Acute toxicity in mouse. Type of data set: in vivo. Particulars: 2 weeks observation. Here is the method:
The test was carried out with the compounds obtained in Examples 5 and 9. Groups of 5 male ddy mice weighing 26 to 28 g were employed. The test compounds were suspended in a 0.5% CMC aqueous solution and the resulting suspension was administered orally in an amount of 500 for the compound obtained in Example 9, 1000 or 2000 mg/kg body weight. The survivors were kept under observation daily for 2 weeks. From the results shown in Table 6, the LD50 of the compounds obtained in Example 5 and 9 were estimated to be more than 2000 mg/kg. The other compounds of the present invention also had the same toxicity as the above compounds.

As to `CC(C)c1cccc2n(Cc3ccc(F)cc3)c(=O)c(-c3nnn[nH]3)c-2c1` [Example 9, 1-(4-Fluorobenzyl)-5-iso-propyl-3-(5-tetrazolyl)-1-azaazulane-2-one], the EC50 in data set [1] turned out to be 8.6 µg/mL (≈ 23.7 µM). In addition, the Mortality in “Acute toxicity in mouse” (500 mg/kg p.o.), in the data set “Acute toxicity in mouse” (1000 mg/kg p.o.) and in “Acute toxicity in mouse” (2000 mg/kg p.o.) was 0/5 each time. This molecule yielded an LD50 at 336 h in the data set “Acute toxicity in mouse” (mouse, in vivo, oral) of more than 2000 mg/kg.
